Experimental data reported in patent publication US7163946B2 (Ligand Pharmaceuticals Incorporated, priority 2002, dated 2007).

Tests used:
[1] = target: T1, hPR (Homo sapiens, UniProt P06401); assay: T47D alkaline phosphatase assay, antagonist mode; assay type: cell-based; details: T47D human breast cancer cells; for Emax: read-out: hPR Antagonists T47D Cells Eff. (%); for IC50: read-out: hPR Antagonists T47D Cells IC50
T1 sequence (P06401 679-933 limits assumed): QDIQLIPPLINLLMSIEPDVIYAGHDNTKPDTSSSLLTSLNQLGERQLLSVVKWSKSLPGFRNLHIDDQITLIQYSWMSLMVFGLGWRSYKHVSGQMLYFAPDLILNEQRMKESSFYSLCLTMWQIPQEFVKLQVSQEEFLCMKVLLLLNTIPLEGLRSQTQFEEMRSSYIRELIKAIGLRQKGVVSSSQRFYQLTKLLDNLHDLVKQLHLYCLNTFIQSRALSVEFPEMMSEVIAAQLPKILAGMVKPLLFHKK

[2] = target: T2, hPR-A (Homo sapiens, UniProt P06401); assay: Receptor competitive binding assay; details: read-out: PR binding Ki
T2 sequence (P06401 1-769 isoform P06401-2): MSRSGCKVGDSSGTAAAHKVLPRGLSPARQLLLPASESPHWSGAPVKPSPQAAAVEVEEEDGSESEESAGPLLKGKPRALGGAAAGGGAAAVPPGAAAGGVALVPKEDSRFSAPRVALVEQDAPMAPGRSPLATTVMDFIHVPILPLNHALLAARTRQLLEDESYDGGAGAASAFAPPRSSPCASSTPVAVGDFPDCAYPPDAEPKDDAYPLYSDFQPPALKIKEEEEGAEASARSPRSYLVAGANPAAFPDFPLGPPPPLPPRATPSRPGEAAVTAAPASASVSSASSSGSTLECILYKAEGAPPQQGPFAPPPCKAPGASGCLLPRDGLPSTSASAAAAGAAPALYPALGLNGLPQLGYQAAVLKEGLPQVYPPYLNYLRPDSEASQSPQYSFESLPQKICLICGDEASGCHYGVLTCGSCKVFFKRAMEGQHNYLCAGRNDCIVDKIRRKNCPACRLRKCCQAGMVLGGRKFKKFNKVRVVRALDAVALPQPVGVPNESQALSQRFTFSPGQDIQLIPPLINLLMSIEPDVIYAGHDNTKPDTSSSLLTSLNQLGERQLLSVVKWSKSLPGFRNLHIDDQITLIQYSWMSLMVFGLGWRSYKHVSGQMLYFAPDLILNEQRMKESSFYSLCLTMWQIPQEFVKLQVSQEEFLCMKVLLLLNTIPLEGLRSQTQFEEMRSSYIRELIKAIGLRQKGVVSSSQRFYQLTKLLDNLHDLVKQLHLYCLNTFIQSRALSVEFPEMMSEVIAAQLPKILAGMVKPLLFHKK

[3] = test system: immature rabbits; assay: McPhail (Clauberg) rabbit assay of progestational activity; assay type: in vivo; details: Oryctolagus cuniculus; estradiol-primed immature rabbits; glandular changes of the uterus; read-out: potency (MAD in mg/kg), minimum active dose
Protocol: The superiority of the 7,9-difluoro analogue compounds of the present invention was further characterized utilizing the McPhail rabbit model according to the following illustrative Examples. The Clauberg or McPhail assay is a classic assay utilizing rabbits to measure progestational activity. […] In this assay, immature rabbits are treated initially with estradiol, which induces growth in the uterus. This is followed by a progestin, which causes a large change in the glandular content of the uterus. It is this change in the glandular component which is a measure of the progestational activity of a progestin. The measurement of these glandular changes is carried out histologically using stained sections of the uterus. The in vivo comparison between the new 7,9-difluoro compounds and analogues with substitution patterns different from 7,9-difluoro (U.S. Pat. Nos. 5,693,646 and 5,696,127) is tabulated in Tables 7 and 8. The in vivo potency of the progestins is presented as the minimum active dose (MAD).

[4] = test system: ovariectomized female rats; assay: Multi-endpoint adult rat model, uterus/breast tissue-selectivity; assay type: in vivo; details: ratio of relative efficacy to MPA in uterus verse in breast tissue at the same highest dose tested; estrone-treated ovariectomized rats, three days

Emax [1] | IC50 [1] | Ki [2] | SMILES | minimal effective dose [3] | uterus/breast tissue-selectivity [4]
< 20% | > 10000 nM | 2.7 nM | CC1=CC(C)(C)Nc2ccc3c(c21)C(c1ccccc1)Oc1c(F)cc(F)cc1-3 (racemic) [Compound 33, (±)-7,9-difluoro-5-phenyl-1,2-dihydro-2,2,4-trimethyl-5H-chromeno[3,4-f]quinoline] | – | –
46% | 610 nM | 9 nM | COc1ccc(F)cc1/C=C1\Oc2c(F)cc(F)cc2-c2ccc3c(c21)C(C)=CC(C)(C)N3 [Compound 26, 7,9-difluoro-5(Z)-(2-methoxy-5-fluorobenzylidene)-1,2-dihydro-2,2,4-trimethyl-5H-chromeno[3,4-f]quinoline] | 2 mg/kg | –
40% | 53 nM | 3.5 nM | CC#CC1Oc2c(F)cc(F)cc2-c2ccc3c(c21)C(C)=CC(C)(C)N3 (racemic) [Compound 74, (±)-7,9-difluoro-5-(1-propynyl)-1,2-dihydro-2,2,4-trimethyl-5H-chromeno[3,4-f]quinoline] | – | –
50% | 135 nM | 2.8 nM | CC1=CC(C)(C)Nc2ccc3c(c21)C(c1cccc(Cl)c1)Oc1c(F)cc(F)cc1-3 (racemic) [Compound 41, (±)-7,9-difluoro-5-(3-chlorophenyl)-1,2-dihydro-2,2,4-trimethyl-5H-chromeno[3,4-f]quinoline] | 0.75 mg/kg | –
39% | 610 nM | 7.9 nM | CC1=CC(C)(C)Nc2ccc3c(c21)/C(=C/c1cccs1)Oc1c(F)cc(F)cc1-3 [Compound 31, 7,9-difluoro-5(Z)-(2-thienylmethylidene)-1,2-dihydro-2,2,4-trimethyl-5H-chromeno[3,4-f]quinoline] | – | 3.5
59% | 170 nM | 2.9 nM | CC1=CC(C)(C)Nc2ccc3c(c21)/C(=C/c1ccncc1C)Oc1c(F)cc(F)cc1-3 [Compound 20, 7,9-difluoro-5(Z)-(3-methyl-4-picolylidene)-1,2-dihydro-2,2,4-trimethyl-5H-chromeno[3,4-f]quinoline] | 0.25 mg/kg | –
35% | 360 nM | 8.5 nM | CC1=CC(C)(C)Nc2ccc3c(c21)/C(=C/c1cc(F)ccc1C)Oc1c(F)cc(F)cc1-3 [Compound 19, 7,9-difluoro-5(Z)-(2-methyl-5-fluorobenzylidene)-1,2-dihydro-2,2,4-trimethyl-5H-chromeno[3,4-f]quinoline] | 0.1 mg/kg | 3.5
44% | 116 nM | 6 nM | CC1=CC(C)(C)Nc2ccc3c(c21)/C(=C/c1ccncc1)Oc1c(F)cc(F)cc1-3 [Compound 14, 7,9-difluoro-5(Z)-(4-picolylidene)-1,2-dihydro-2,2,4-trimethyl-5H-chromeno[3,4-f]quinoline] | – | –
40% | 170 nM | 7 nM | CC1=CC(C)(C)Nc2ccc3c(c21)/C(=C/Br)Oc1c(F)cc(F)cc1-3 [Compound 29, 7,9-difluoro-5(Z)-bromomethylidene-1,2-dihydro-2,2,4-trimethyl-5H-chromeno[3,4-f]quinoline] | – | –
44% | 840 nM | 4.5 nM | CC1=CC(C)(C)Nc2ccc3c(c21)/C(=C/c1ccsc1)Oc1c(F)cc(F)cc1-3 [Compound 30, 7,9-difluoro-5(Z)-(3-thienylmethylidene)-1,2-dihydro-2,2,4-trimethyl-5H-chromeno[3,4-f]quinoline] | – | –
47% | 565 nM | 2.5 nM | CC1=CC(C)(C)Nc2ccc3c(c21)C(c1cccc(C)c1)Oc1c(F)cc(F)cc1-3 (racemic) [Compound 34, (±)-7,9-difluoro-5-(3-methylphenyl)-1,2-dihydro-2,2,4-trimethyl-5H-chromeno[3,4-f]quinoline] | 1 mg/kg | –
56% | 150 nM | 2.2 nM | CC1=CC(C)(C)Nc2ccc3c(c21)C(c1ccc(Cl)c(C)c1)Oc1c(F)cc(F)cc1-3 (racemic) [Compound 37, (±)-7,9-difluoro-5-(4-chloro-3-methylphenyl)-1,2-dihydro-2,2,4-trimethyl-5H-chromeno[3,4-f]quinoline] | – | –
52% | 711 nM | 9.7 nM | CC1=CC(C)(C)Nc2ccc3c(c21)/C(=C/c1cccc(F)c1)Oc1c(F)cc(F)cc1-3 [Compound 15, 7,9-difluoro-5(Z)-(3-fluorobenzylidene)-1,2-dihydro-2,2,4-trimethyl-5H-chromeno[3,4-f]quinoline] | 0.18 mg/kg | –
42% | 389 nM | 9.5 nM | CC1=CC(C)(C)Nc2ccc3c(c21)/C(=C/c1cc(F)ccc1F)Oc1c(F)cc(F)cc1-3 [Compound 17, 7,9-difluoro-5(Z)-(2,5-difluorobenzylidene)-1,2-dihydro-2,2,4-trimethyl-5H-chromeno[3,4-f]quinoline] | 0.25 mg/kg | 2.7
49% | 490 nM | 6.5 nM | CC1=CC(C)(C)Nc2ccc3c(c21)C(c1cc2ccccc2s1)Oc1c(F)cc(F)cc1-3 (racemic) [Compound 63, (±)-7,9-difluoro-5-(benzo[b]thien-2-yl)-1,2-dihydro-2,2,4-trimethyl-5H-chromeno[3,4-f]quinoline] | – | –
58% | 55 nM | 3.9 nM | COc1ccccc1/C=C1\Oc2c(F)cc(F)cc2-c2ccc3c(c21)C(C)=CC(C)(C)N3 [Compound 18, 7,9-difluoro-5(Z)-(2-methoxybenzylidene)-1,2-dihydro-2,2,4-trimethyl-5H-chromeno[3,4-f]quinoline] | 2 mg/kg | –
49% | 97 nM | 6.8 nM | CC1=CC(C)(C)Nc2ccc3c(c21)/C(=C/c1ccccc1)Oc1c(F)cc(F)cc1-3 [Compound 10, 7,9-difluoro-5(Z)-benzylidene-1,2-dihydro-2,2,4-trimethyl-5H-chromeno[3,4-f]quinoline] | – | –
